These results are taken from patent US8742158B2, “Protease inhibitors” (TaiMed Biologics, Inc., priority 2006, dated 2014).

The first assay concerns the target HIV-1 Protease (Human immunodeficiency virus type 1 group M subtype B (isolate HXB2) (HIV-1), UniProt P04585). Description: Enzymatic (FRET fluorometric) assay for determining the inhibition constant (Ki) of compounds targeting the HIV protease. The assay is classed as biochemical. Particulars: KIGRAPHIC ENZYME HIV-1 Protease, Ki determined graphically; read-out: […] ENZYME HIV-1 Protease. The text has this: Enzymatic Assay for Determining the Inhibition Constant (Ki) of Synthetic Compounds Targeting the HIV Protease
This is a fluorometric assay based on the cleavage by protease of a substrate carrying a donor group (EDANS) and an acceptor group (DABCYL) on each side of the cleavage site, interacting together through fluorescence resonance energy transfer (FRET) as described by Matayoshi et al. (Science 247:[…], 1990).
After calculation of Vo and Vi, the inhibition constant (Ki) of the compound is determined using the equation of Henderson:
where Vo=the enzyme's initial velocity
Vi=the enzyme velocity in the presence of the inhibitory compound,
[I]=inhibitor concentration, [S]=substrate concentration,
Km=Michaelis-Menten constant and Kiapp=apparent Ki
Graphs are traced and the Ki determined using GraphPad Prism software v. 3.0.
In the case of `CC(C)CN([C@H](CO)CCCCNC(=O)[C@@H](NC(=O)c1cccc(O)n1)C(c1ccccc1)c1ccccc1)S(=O)(=O)c1ccc2c(c1)OCO2` [EX 28], the Ki was 0.47 nM.

Still in this assay, the particulars now being: calculated Ki; read-out: KI-CALC ENZYME HIV-1 Protease.
On to `CC(C)CN([C@@H](CCCCNC(=O)[C@H](Cc1ccccc1Br)NC(=O)c1ccncc1)COP(=O)(O)O)S(=O)(=O)c1ccc(N)cc1` [EX 3, (2S,2S) phosphoric acid mono-(2-[(4-aminobenzenesulfonyl)-isobutyl-amino]-6-{3-(2-bromo-phenyl)-2-[(pyridine-4-carbonyl)-amino]-propionylamino}-hexyl)ester], for which the Ki is > 300 nM.

Regarding `CC(=O)N[C@H](C(=O)NCCCC[C@@H](C(N)=O)N(CC(C)C)S(=O)(=O)c1ccc(N)cc1)C(c1ccccc1)c1ccccc1` [EX. 8], the Ki is < 3.8 nM.

On to `COC(=O)N[C@@H](Cc1ccc(Br)cc1)C(=O)NCCCC[C@@H](COP(=O)(O)O)N(CC(C)C)S(=O)(=O)c1ccc(N)cc1` [EX 6, (1S,5S) [1-{5-[(4-amino-benzenesulfonyl)-isobutyl-amino]-6-phosphonooxy-hexylcarbamoyl}-2-(4-bromo-phenyl)-ethyl]-carbamic acid methyl ester], for which the Ki was > 300 nM.

Consider `CC(C)CN([C@H](CO)CCCCNC(=O)[C@H](Cc1ccc2ccccc2c1)NS(=O)(=O)c1cn(C)cn1)S(=O)(=O)c1ccc(N)cc1` [EX 54], for which the Ki was 11.4 nM.

For `Cc1ncccc1C(=O)N[C@@H](Cc1ccccc1Br)C(=O)NCCCC[C@@H](COP(=O)(O)O)N(CC(C)C)S(=O)(=O)c1ccc(N)cc1` [EX. 2, (2S,2S) phosphoric acid mono-(2-[(4-aminobenzenesulfonyl)-isobutyl-amino]-6-{3-(2-bromo-phenyl)-2-[(2-methyl-pyridine-3-carbonyl)-amino]-propionylamino}-hexyl)ester], the Ki was > 300 nM.

As to `Cc1nn(C)c(Cl)c1S(=O)(=O)N[C@@H](Cc1ccc2ccccc2c1)C(=O)NCCCC[C@@H](CO)N(CC(C)C)S(=O)(=O)c1ccc(N)cc1` [EX 51], the Ki was 26.2 nM.

As for `COC(=O)N[C@@H](Cc1ccccc1Cl)C(=O)NCCCC[C@@H](COP(=O)(O)O)N(CC(C)C)S(=O)(=O)c1ccc(N)cc1` [EX 5, (1S,5S) [1-{5-[(4-amino-benzenesulfonyl)-isobutyl-amino]-6-phosphonooxy-hexylcarbamoyl}-2-(2-chloro-phenyl)-ethyl]-carbamic acid methyl ester], the Ki is 91 nM.

On to `CC(C)CN([C@H](CO)CCCCNC(=O)[C@H](Cc1ccc2ccccc2c1)NS(=O)(=O)c1ccc(C#N)cc1)S(=O)(=O)c1ccc(N)cc1` [EX 53], for which the Ki was 37.4 nM.

As for `COC(=O)N[C@@H](Cc1ccccc1Br)C(=O)NCCCC[C@@H](COP(=O)(O)O)N(CC(C)C)S(=O)(=O)c1ccc(N)cc1` [EX. 1, (1S,5S)-[1-{5-[(4-amino-benzenesulfonyl)-isobutyl-amino]-6-phosphonooxy-hexylcarbamoyl}-2-(2-bromo-phenyl)-ethyl]-carbamic acid methyl ester], the Ki is > 300 nM.

In the case of `COC(=O)N[C@@H](Cc1ccccc1F)C(=O)NCCCC[C@@H](COP(=O)(O)O)N(CC(C)C)S(=O)(=O)c1ccc(N)cc1` [EX 4, (1S,5S)-[1-{5-[(4-amino-benzenesulfonyl)-isobutyl-amino]-6-phosphonooxy-hexylcarbamoyl}-2-(2-fluoro-phenyl)-ethyl]-carbamic acid methyl ester], the Ki was > 300 nM.

The assay is the same for the next values; noted with them: read-out: IC50 ENZYME HIV-1 Protease.
The term IC50 denotes the concentration that gives 50% inhibition. For the compound `CC(=O)N[C@H](C(=O)NCCCC[C@@H](C(N)=O)N(CC(C)C)S(=O)(=O)c1ccc(N)cc1)C(c1ccccc1)c1ccccc1` [EX. 8], the 50% inhibitory concentration (IC50) came out at 1.07 nM.
